Assay results as given in patent publication US9932637B2, “Genetic polymorphisms associated with cardiovascular disorders and drug response, methods of detection and uses thereof” (CELERA CORPORATION, priority 2003, dated 2018).

Test system: patients with prior myocardial infarction (CARE study)
Test: CARE: association of SNPs with pravastatin treatment in cardiovascular events prevention (logistic regression, odds ratio pravastatin vs placebo by genotype; Table 8)
Format: in vivo, human
Details: for Non-fatal MI (def & prob), n/total (%) / Fatal CHD/Definite Non-fatal MI, n/total (%) / Coronary Artery Bypass or Revascularization, n/total (%) / Hosp. for Unstable Angina, n/total (%) / Total Coronary Heart Disease Events, n/total (%) / Fatal/Non-fatal Atherosclerotic CV Disease, n/total (%) / Hosp. for Cardiovascular Disease, n/total (%) / Total Cardiovascular Disease Events, n/total (%) / Prava vs. Placebo Odds Ratio, 0 Rare Alleles / Prava vs. Placebo Odds Ratio, 1 Rare Alleles / Cardiovascular Mortality, n/total (%) / Fatal Atherosclerotic Cardiovascular Disease, n/total (%) / Fatal/Non-fatal MI (def & prob), n/total (%): All Patients; for Non-fatal MI (def & prob), n/total (%) / Fatal CHD/Definite Non-fatal MI, n/total (%) / Coronary Artery Bypass or Revascularization, n/total (%) / Hosp. for Unstable Angina, n/total (%) / Total Coronary Heart Disease Events, n/total (%) / Fatal/Non-fatal Atherosclerotic CV Disease, n/total (%) / Hosp. for Cardiovascular Disease, n/total (%) / Total Cardiovascular Disease Events, n/total (%) / Cardiovascular Mortality, n/total (%) / Fatal Atherosclerotic Cardiovascular Disease, n/total (%) / Fatal/Non-fatal MI (def & prob), n/total (%): Prava
Excerpt: In order to identify genetic markers associated with acute coronary events (e.g. MI, stroke, unstable angina, congestive heart failure, etc.) or response to statin treatment for the prevention of coronary events, samples from the Cholesterol and Recurrent Events (CARE) study (a randomized multicentral double-blinded trial on secondary prevention of acute coronary events with pravastatin) (Sacks et al., 1991, Am. J. Cardiol. 68: 1436-1446) were genotyped. A well-documented myocardial infarction (MI) was one of the enrollment criteria for entry into the CARE study. Patients were enrolled in the CARE trial from 80 participating study centers. […] Patients were randomized to receive either 40 mg of pravastatin once daily or a matching placebo. The primary endpoint of the trial was death from coronary heart disease and the median duration of follow-up was 5.0 years (range, 4.0 to 6.2 years). […] Secondary endpoints of other related cardiovascular or metabolic disease events, and changes in clinical variables were also recorded in pravastatin-treated and placebo groups. All individuals included in the study had signed a written informed consent form and the study protocol was approved by the respective Institutional Review Boards (IRBs).
For genotyping SNPs in CARE patient samples, DNA was extracted from blood samples using conventional DNA extraction methods such as the QIA-amp kit from Qiagen. Genotypes were obtained on an ABI PRISM® 7900HT Sequence Detection PCR system (Applied Biosystems, Foster City, Calif.) by kinetic allele-specific PCR, similar to the method described by Germer et al. (Germer S., Holland M. J., Higuchi R. 2000, Genome Res. 10: 258-266).
Statistical analysis for association of SNPs with pravastatin treatment in cardiovascular events prevention (Table 8) was carried out using an overall logistic regression model that included an intercept, a parameter for the effect of a genotype containing two rare alleles versus a genotype containing no rare alleles, a parameter for the effect of a genotype containing one rare allele versus a genotype containing no rare alleles, a parameter for the effect of use of pravastatin versus the use of placebo, and parameters for the interaction effects between SNP genotypes and pravastatin use. The test of the overall model is a chi-square test with two degrees of freedom for analyses containing all three genotypes, and one degree of freedom for analyses containing two genotypes.
Effect sizes were estimated through odds ratios (pravastatin group versus placebo) for carriers of each genotype (groups of 0, 1, and 2 minor allele carriers). The effect was considered to be significant if p-value for testing whether any of the interactions between SNP genotypes and pravastatin use were <0.05. […] Odds ratios less than one indicate that the specific SNP allele has a protective effect and odds ratios greater than one indicate that the specific SNP allele has an adverse effect.

[1] = CR1 hCV25598594, 2 Rare Alleles, n/total 0/0
[2] = CR1 hCV25598594, Coronary Artery Bypass or Revascularization
[3] = CR1 hCV25598594, Fatal CHD/Definite Non-fatal MI
[4] = CR1 hCV25598594, Fatal/Non-fatal Atherosclerotic CV Disease
[5] = CR1 hCV25598594, Hosp. for Cardiovascular Disease
[6] = CR1 hCV25598594, Hosp. for Unstable Angina
[7] = CR1 hCV25598594, Non-fatal MI (def & prob)
[8] = CR1 hCV25598594, Total Cardiovascular Disease Events
[9] = CR1 hCV25598594, Total Coronary Heart Disease Events
[10] = CXCL16 hCV8718197, 0 Rare Alleles, n/total 12/468

Question: For `CC[C@H](C)C(=O)O[C@H]1C[C@H](O)C=C2C=C[C@H](C)[C@H](CC[C@@H](O)C[C@@H](O)CC(=O)O)[C@H]21` [pravastatin], which “Nonfatal MI (def & prob), n/total (%)” value (COL11A1 hCV8400671, All Patients, 2 Rare Alleles, Prava arm) is on record?
Answer: (4.1%)

Question: What about the “Non-fatal MI (def & prob), n/total (%)” value (CR1 hCV25598594, 0 Rare Alleles, n/total 132/1445) of the same compound?
Answer: (9.1%)

Question: And the “Fatal CHD/Definite Non-fatal MI, n/total (%)” value (CR1 hCV25598594, 0 Rare Alleles, n/total 139/1445)?
Answer: (9.6%)

Question: What about the “Coronary Artery Bypass or Revascularization, n/total (%)” value (CR1 hCV25598594, 0 Rare Alleles, n/total 212/1445) of the same compound?
Answer: (14.7%)

Question: And the “Hosp. for Unstable Angina, n/total (%)” value (CR1 hCV25598594, 0 Rare Alleles, n/total 223/1445)?
Answer: (15.4%)

Question: And the “Total Coronary Heart Disease Events, n/total (%)” value (CR1 hCV25598594, 0 Rare Alleles, n/total 431/1445)?
Answer: (29.8%)

Question: And the “Fatal/Non-fatal Atherosclerotic CV Disease, n/total (%)” value (CR1 hCV25598594, 0 Rare Alleles, n/total 491/1445)?
Answer: (34.0%)

Question: What about the “Hosp. for Cardiovascular Disease, n/total (%)” value (CR1 hCV25598594, 0 Rare Alleles, n/total 586/1445) of the same compound?
Answer: (40.6%)

Question: What about the “Total Cardiovascular Disease Events, n/total (%)” value (CR1 hCV25598594, 0 Rare Alleles, n/total 603/1445) of the same compound?
Answer: (41.7%)

Question: And the “Fatal CHD/Definite Non-fatal MI, n/total (%)” value (CR1 hCV25598594, 1 Rare Allele, n/total 1/72)?
Answer: (1.4%)

Question: What about the “Non-fatal MI (def & prob), n/total (%)” value (CR1 hCV25598594, 1 Rare Allele, n/total 2/72) of the same compound?
Answer: (2.8%)

Question: What about the “Coronary Artery Bypass or Revascularization, n/total (%)” value (CR1 hCV25598594, 1 Rare Allele, n/total 7/72) of the same compound?
Answer: (9.7%)

Question: And the “Hosp. for Unstable Angina, n/total (%)” value (CR1 hCV25598594, 1 Rare Allele, n/total 8/72)?
Answer: (11.1%)

Question: And the “Total Coronary Heart Disease Events, n/total (%)” value (CR1 hCV25598594, 1 Rare Allele, n/total 11/72)?
Answer: (15.3%)

Question: What about the “Fatal/Non-fatal Atherosclerotic CV Disease, n/total (%)” value (CR1 hCV25598594, 1 Rare Allele, n/total 15/72) of the same compound?
Answer: (20.8%)

Question: And the “Hosp. for Cardiovascular Disease, n/total (%)” value (CR1 hCV25598594, 1 Rare Allele, n/total 23/72)?
Answer: (31.9%)

Question: And the “Total Cardiovascular Disease Events, n/total (%)” value (CR1 hCV25598594, 1 Rare Allele, n/total 24/72)?
Answer: (33.3%)

Question: What about the “Coronary Artery Bypass or Revascularization, n/total (%)” value [1] of the same compound?
Answer: (0.0%)

Question: What about the “Fatal CHD/Definite Non-fatal MI, n/total (%)” value [1] of the same compound?
Answer: (0.0%)

Question: What about the “Fatal/Non-fatal Atherosclerotic CV Disease, n/total (%)” value [1] of the same compound?
Answer: (0.0%)

Question: What about the “Hosp. for Cardiovascular Disease, n/total (%)” value [1] of the same compound?
Answer: (0.0%)

Question: What about the “Hosp. for Unstable Angina, n/total (%)” value [1] of the same compound?
Answer: (0.0%)

Question: What about the “Non-fatal MI (def & prob), n/total (%)” value [1] of the same compound?
Answer: (0.0%)

Question: What about the “Total Cardiovascular Disease Events, n/total (%)” value [1] of the same compound?
Answer: (0.0%)

Question: And the “Total Coronary Heart Disease Events, n/total (%)” value [1]?
Answer: (0.0%)

Question: What about the “Prava vs. Placebo Odds Ratio, 0 Rare Alleles” value [2] of the same compound?
Answer: 0.74

Question: And the “Prava vs. Placebo Odds Ratio, 1 Rare Alleles” value [2]?
Answer: 0.23

Question: What about the “Prava vs. Placebo Odds Ratio, 0 Rare Alleles” value [3] of the same compound?
Answer: 0.76

Question: And the “Prava vs. Placebo Odds Ratio, 1 Rare Alleles” value [3]?
Answer: 0.06

Question: And the “Prava vs. Placebo Odds Ratio, 0 Rare Alleles” value [4]?
Answer: 0.81

Question: And the “Prava vs. Placebo Odds Ratio, 1 Rare Alleles” value [4]?
Answer: 0.25

Question: And the “Prava vs. Placebo Odds Ratio, 0 Rare Alleles” value [5]?
Answer: 0.79

Question: And the “Prava vs. Placebo Odds Ratio, 1 Rare Alleles” value [5]?
Answer: 0.33

Question: And the “Prava vs. Placebo Odds Ratio, 0 Rare Alleles” value [6]?
Answer: 0.87

Question: What about the “Prava vs. Placebo Odds Ratio, 1 Rare Alleles” value [6] of the same compound?
Answer: 0.31

Question: What about the “Prava vs. Placebo Odds Ratio, 0 Rare Alleles” value [7] of the same compound?
Answer: 0.74

Question: And the “Prava vs. Placebo Odds Ratio, 1 Rare Alleles” value [7]?
Answer: 0.12

Question: And the “Prava vs. Placebo Odds Ratio, 0 Rare Alleles” value [8]?
Answer: 0.78

Question: And the “Prava vs. Placebo Odds Ratio, 1 Rare Alleles” value [8]?
Answer: 0.33

Question: And the “Prava vs. Placebo Odds Ratio, 0 Rare Alleles” value [9]?
Answer: 0.81

Question: What about the “Prava vs. Placebo Odds Ratio, 1 Rare Alleles” value [9] of the same compound?
Answer: 0.22

Question: And the “Cardiovascular Mortality, n/total (%)” value [10]?
Answer: (2.6%)

Question: And the “Fatal Atherosclerotic Cardiovascular Disease, n/total (%)” value [10]?
Answer: (2.6%)

Question: And the “Fatal/Non-fatal MI (def & prob), n/total (%)” value (CXCL16 hCV8718197, 0 Rare Alleles, n/total 33/468)?
Answer: (7.1%)

Question: What about the “Fatal CHD/Definite Non-fatal MI, n/total (%)” value (CXCL16 hCV8718197, 0 Rare Alleles, n/total 36/468) of the same compound?
Answer: (7.7%)

Question: What about the “Coronary Artery Bypass or Revascularization, n/total (%)” value (CXCL16 hCV8718197, 0 Rare Alleles, n/total 56/468) of the same compound?
Answer: (12.0%)

Question: And the “Total Coronary Heart Disease Events, n/total (%)” value (CXCL16 hCV8718197, 0 Rare Alleles, n/total 125/468)?
Answer: (26.7%)

Question: What about the “Hosp. for Cardiovascular Disease, n/total (%)” value (CXCL16 hCV8718197, 0 Rare Alleles, n/total 177/468) of the same compound?
Answer: (37.8%)

Question: And the “Total Cardiovascular Disease Events, n/total (%)” value (CXCL16 hCV8718197, 0 Rare Alleles, n/total 180/468)?
Answer: (38.5%)

Question: And the “Fatal Atherosclerotic Cardiovascular Disease, n/total (%)” value (CXCL16 hCV8718197, 1 Rare Allele, n/total 23/742)?
Answer: (3.1%)

Question: What about the “Cardiovascular Mortality, n/total (%)” value (CXCL16 hCV8718197, 1 Rare Allele, n/total 24/742) of the same compound?
Answer: (3.2%)

Question: What about the “Fatal CHD/Definite Non-fatal MI, n/total (%)” value (CXCL16 hCV8718197, 1 Rare Allele, n/total 68/742) of the same compound?
Answer: (9.2%)

Question: What about the “Fatal/Non-fatal MI (def & prob), n/total (%)” value (CXCL16 hCV8718197, 1 Rare Allele, n/total 75/742) of the same compound?
Answer: (10.1%)

Question: And the “Coronary Artery Bypass or Revascularization, n/total (%)” value (CXCL16 hCV8718197, 1 Rare Allele, n/total 119/742)?
Answer: (16.0%)

Question: And the “Total Coronary Heart Disease Events, n/total (%)” value (CXCL16 hCV8718197, 1 Rare Allele, n/total 220/742)?
Answer: (29.6%)

Question: And the “Hosp. for Cardiovascular Disease, n/total (%)” value (CXCL16 hCV8718197, 1 Rare Allele, n/total 305/742)?
Answer: (41.1%)

Question: And the “Total Cardiovascular Disease Events, n/total (%)” value (CXCL16 hCV8718197, 1 Rare Allele, n/total 314/742)?
Answer: (42.3%)

Question: What about the “Cardiovascular Mortality, n/total (%)” value (CXCL16 hCV8718197, 2 Rare Alleles, n/total 19/292) of the same compound?
Answer: (6.5%)
